Laboratory results published in patent US11021481B2, “Substituted isoindolin-1-ones and 2,3-dihydro-1h-pyrrolo[3,4-c]pyridin-1-ones as HPK1 antagonists” (Nimbus Saturn, Inc., priority 2019, dated 2021).
Where a name gives a salt, the structure may show the parent alone.

These compounds were tested against HPK1 (Homo sapiens (Human), UniProt Q92918) (assay: HPK1 biochemical enzyme assay (microfluidic mobility shift assay)). Details: 1.5 nM HPK1, ATP 1 mM final, 30 min preincubation, 60 min at RT, Caliper EZ Reader; read-out: HPK1 1000UMATP caliper IC50.
How it was run: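 Ten-point compound titrations (top 3 μM final) preincubated 30 min with HPK1 and substrate, then reaction started with 1 mM ATP and 1 μM substrate, 5 mM MgCl2. After 60 min at RT, reaction terminated and product measured by microfluidic mobility shift.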

Sequence of HPK1 (Q92918 whole entry): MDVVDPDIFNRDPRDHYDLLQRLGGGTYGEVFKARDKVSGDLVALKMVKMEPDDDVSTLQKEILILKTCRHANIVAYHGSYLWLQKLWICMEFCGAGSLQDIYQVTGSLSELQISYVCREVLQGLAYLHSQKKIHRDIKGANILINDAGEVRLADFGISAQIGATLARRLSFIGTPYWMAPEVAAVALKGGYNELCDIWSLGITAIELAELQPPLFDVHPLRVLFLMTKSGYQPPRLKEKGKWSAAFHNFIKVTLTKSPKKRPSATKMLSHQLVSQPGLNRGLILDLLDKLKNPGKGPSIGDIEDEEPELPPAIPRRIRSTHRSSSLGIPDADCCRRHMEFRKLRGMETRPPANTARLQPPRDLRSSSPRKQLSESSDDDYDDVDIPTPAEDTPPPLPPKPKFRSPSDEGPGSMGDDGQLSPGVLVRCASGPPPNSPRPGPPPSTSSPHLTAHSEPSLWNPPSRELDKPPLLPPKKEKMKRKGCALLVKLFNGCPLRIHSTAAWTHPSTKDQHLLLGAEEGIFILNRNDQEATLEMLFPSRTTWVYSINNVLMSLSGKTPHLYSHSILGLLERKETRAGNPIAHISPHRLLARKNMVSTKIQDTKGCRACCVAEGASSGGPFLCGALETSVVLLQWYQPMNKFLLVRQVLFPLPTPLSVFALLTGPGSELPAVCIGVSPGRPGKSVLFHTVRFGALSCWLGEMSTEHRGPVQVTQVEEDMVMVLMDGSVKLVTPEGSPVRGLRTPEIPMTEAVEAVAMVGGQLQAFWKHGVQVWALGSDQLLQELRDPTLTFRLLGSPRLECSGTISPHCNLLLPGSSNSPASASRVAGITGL

Row | IC50 [nM] | SMILES
1 | < 100 | O=C1NCc2c(-c3cnc4ccccn34)ncc(Nc3ccc(N4CCNCC4)cn3)c21 [I-63, 4-imidazo[1,2-a]pyridin-3-yl-7-[(5-piperazin-1-yl-2-pyridyl)amino]-2,3-dihydropyrrolo [3,4-c]pyridin-1-one]
2 | < 100 | CN(C)Cc1nc(Nc2ccc(-c3cnc4cc(F)ccn34)c3c2C(=O)NC3)cnc1C1CCOC1 (stereo in doubt) [I-799, (S)-7-((6-((dimethylamino)-methyl)-5-(tetrahydrofu-ran-3-yl)pyrazin-2-yl)amino)-4-(7-fluoroimidazo [1,2-a]pyridin-3-yl)isoindolm-1-one]
3 | < 100 | C[C@H](c1nc(Nc2ccc(-c3cnc4cc(F)ccn34)c3c2C(=O)NC3)ccc1[C@H]1CCOC1)N(C)C [I-817, 7-((6-((R)-1-(dimethylami-no)ethyl)-5-((R)-THF-3-yl)pyridin-2-yl)amino)-4-(7-fluoroimidazo [1,2-a]pyridin-3-yl)isoindolin-1-one]
4 | < 100 | CN(C)Cc1nc(Nc2ccc(-c3cnc4cc(F)ccn34)c3c2C(=O)NC3)ccc1N1CCC(=O)N(C)CC1 [I-534, 7-[[6-[(dimethylamino)-methyl]-5-(4-methyl-5-oxo-1,4-diazepan-1-yl)-2-pyridyl]amino]-4-(7-fluoroimidazo [1,2-a]pyridin-3-yl)isoindolin-1-one Formic acid salt]
5 | < 100 | Cn1ccc2c(-c3ccc(Nc4ccc(N5CCC(O)CC5)cn4)c4c3CNC4=O)cccc21 [I-161, 7-[[5-(4-hydroxy-1-piperidyl)-2-pyridyl]amino]-4-(1-methylindol-4-yl)isoindolin-1-one]
6 | < 100 | O=C1NCc2c(-c3cnc4cc(F)ccn34)ccc(Nc3ccc(C4CCOC4)c(CO)n3)c21 (centres unmarked) [I-771, 4-(7-fluoroimidazo [1,2-a]pyridin-3-yl)-7-((6-(hydroxymeth-yl]-5-(tetrahydrofuran-3-yl)pyridin-2-yl)amino)isoin-dolin-1-one]
7 | < 100 | Cn1cc(-c2ccc(Nc3ccc(N4CCC(O)CC4)cn3)c3c2CNC3=O)c2cnncc21 [I-425, 7-((5-(4-hydroxy-piperidin-1-yl)pyridin-2-yl)amino)-4-(1-methyl-1H-pyrrolo[2,3-d]pyridazin-3-yl)isoindolin-1-one]
8 | < 100 | Cc1ccc2c(-c3ccc(Nc4ccc(C5CCOC5)c(CN(C)C)n4)c4c3CNC4=O)cnn2c1 (stereo in doubt) [I-732, (R)-7-((6-((dimethylamino)-methyl)-5-(tetrahydrofuran-3-yl)pyridin-2-yl)amino)-4-(6-methylpyra-zolo[1,5-a]pyridin-3-yl)isoindolin-1-one]
9 | < 100 | CN(C)CCNC(=O)C(C)(C)c1ccc(Nc2ccc(-c3cnc4cc(F)ccn34)c3c2C(=O)NC3)nc1 [I-227, N-[2-(dimethylami-no)ethyl]-2-[6-[[7-(7-fluoroimidazo [1,2-a]pyridin-3-yl)-3-oxo-isoindolin-4-yl]amino]-3-pyridyl]-2-methyl-propanamide]
10 | < 100 | CCNC(=O)C(C)(C)c1ccc(Nc2ccc(-c3ccnc4c3ccn4C)c3c2C(=O)NC3)nc1 [I-146, N-ethyl-2-methyl-2-[6-[[7-(1-methylpyrrolo [2,3-b]pyridin-4-yl)-3-oxo-isoindolin-4-yl]amino]-3-pyridyl]propan amide]
11 | < 100 | CN1CCOC2(CCCN(c3ccc(Nc4ccc(-c5cnc6cc(F)ccn56)c5c4C(=O)NC5)nc3)C2)C1 (centres unmarked) [I-496, 4-(7-fluoroimidazo [1,2-a]pyridin-3-yl)-7-[[5-(4-methyl-1-oxa-4,8-diazaspiro[5.5]undecan-8-yl)-2-pyridyl]amino) isoindolin-1-one]
12 | < 100 | CN[C@H]1CCCN(c2ccc(Nc3ccc(-c4ccnc5c4ccn5C)c4c3C(=O)NC4)nc2)C1 [I-97, 7-[[5-[(3S)-3-(methylamino)-1-piperidyl]-2-pyridyl]amino]-4-(1-methylpyrrolo [2,3-b]pyridin-4-yl)isoindolin-1-one]
13 | < 100 | CN(C)Cc1nc(Nc2ccc(-c3cnc4cc(F)ccn34)c3c2C(=O)NC3)ccc1[C@H]1CCCO1 [I-554, (R)-7-((6-((dimethylamino)-methyl)-5-(tetrahydrofuran-2-yl)pyridin-2-yl)amino)-4-(7-fluoroimidazo [1,2-a]pyridin-3-yl)isoindolin-1-one]
14 | < 100 | CN(C)Cc1nc(Nc2ccc(-c3cnc4cc(F)ccn34)c3c2C(=O)NC3)ccc1[C@@H]1CCCOC1 [I-551]
15 | < 100 | Cn1ccc2c(-c3ncc(Nc4ccc(N5CCC(O)CC5)cn4)c4c3CNC4=O)cccc21 [I-279, 7-((5-(4-hydroxypi-peridin-1-yl)pyridin-2-yl)amino)-4-(1-methyl-1H-indol-4-yl)-2.3-dihydro-1H-pyrrolo[3,4-c]pyridin-1-one]
16 | < 100 | Cn1ccc2c(-c3ccc(Nc4ccc(CS(C)(=O)=O)cn4)c4c3CNC4=O)ccnc21 [I-293, 4-(1-methyl-1H-pyrrolo[2,3-b]pyridin-4-yl)-7-((5-((methylsulfonyl)methyl)pyridin-2-yl)amino)isoindolin-1-one]

Row | IC50 [nM] | SMILES
17 | < 100 | O=C1NCc2c(-c3cnc4cnccn34)ccc(Nc3ccc(N4CC[C@@H](F)[C@H](O)C4)cn3)c21 [I-434, 7-((5-((3R,4R)-4-fluoro-3-hydroxypiperidin-1-yl)pyridin-2-yl)amino)-4-(imidazo[1,2-a]pyrazin-3-yl)isoindolin-1-one]
18 | < 100 | Cc1cccc2c(-c3ccc(Nc4ccc(N5CCNCC5)cn4)c4c3CNC4=O)cnn12 [I-84, 4-(7-methylpyrazolo [1,5-a]pyridin-3-yl)-7-[(5-piperazin-1-yl-2-pyridyl)amino] isoindolin-1-one]
19 | < 100 | CN(C)C(C)(C)[C@@H]1CN(c2ccc(Nc3ccc(-c4cnc5cnccn45)c4c3C(=O)NC4)nc2)CCO1 [I-617, (S)-7-((5-(2-(2-(dimethylami-no)propan-2-yl)morpho-lino)pyridin-2-yl)amino)-4-(imidazo[1,2-a]pyrazin-3-yl)isoindolin-1-one]
20 | < 100 | Cn1ccc2c(-c3ncc(Nc4ccc(N5CCO[C@H](C(C)(C)O)C5)cn4)c4c3CNC4=O)cccc21 [I-484, 7-[[5-[(2S)-2-(1-hydroxy-1-methyl-ethyl)morpholin-4-yl]-2-pyridyl]amino]-4-(1-methylindol-4-yl)-2,3-dihydropyrrolo [3,4-c]pyridin-l-one]
21 | < 100 | CN(C)CCN1CCC(c2ccc(Nc3cnc(-c4ccnc5c4ccn5C)c4c3C(=O)NC4)nc2)CC1=O (centres unmarked) [I-386, 7-((5-(1-(2-(dimethylami-no)ethyl)-2-oxopiperidin-4-yl)pyridin-2-yl)amino)-4-(1-methyl-1H-pyrrolo[2,3-b]pyridin-4-yl)-2,3-dihydro-1H-pyrrolo[3,4-c]pyridin-1-one]
22 | < 100 | O=C1NCc2c(-c3cnc4cc(Cl)ccn34)ccc(Nc3ccc(N4CCOCC(O)C4)cn3)c21 (stereo in doubt) [I-596, (R)-4-(7-chloroimidazo [1,2-a]pyridin-3-yl)-7-((5-(6-hydroxy-1.4-oxazepan-4-yl)pyridin-2-yl)amino)isoin-dolin-1-one]
23 | 100 to 1000 | CCNC(=O)c1ccn2c(-c3ccc(Nc4ccc(N5CCC(O)CC5)cn4)c4c3CNC4=O)cnc2c1 [I-195, N-ethyl-3-[7-[[5-(4-hydroxy-1-piperidyl)-2-pyridyl]amino]-1-oxo-isoindolin-4-yl]imidazo[1,2-a]pyridine-7-carboxamide]
24 | 100 to 1000 | CN1CCN(c2ccc(Nc3ccc(-c4c[nH]c5cccnc45)c4c3C(=O)NC4)nc2)CC1 [I-26, 7-((5-(4-methylpiperazin-1-yl)pyridin-2-yl)amino)-4-(1H-pyrrolo[3,2-b]pyridin-3-yl)isoindolin-1-one]
25 | < 100 | Cn1ccc2c(-c3ccc(Nc4ccc(N5CC[C@H](O)C5)cn4)c4c3CNC4=O)ccnc21 [I-285, (S)-7-((5-(3-hydroxy-pyrrolidin-1-yl)pyridin-2-yl)amino)-4-(1-methyl-1H-pyrrolo[2,3-b]pyridin-4-yl)isoindolin-1-one]
26 | < 100 | CN(Cc1nc(Nc2ccc(-c3cnc4cc(F)ccn34)c3c2C(=O)NC3)ccc1[C@H]1CCOC1)CC(F)F (single isomer, unassigned) [I-748]
27 | < 100 | CN1CCc2c(-c3ccc(Nc4ccc(N5CCNCC5)cn4)c4c3CNC4=O)ccnc21 [I-93, 4-(1-methyl-2,3-dihydropyrrolo [2,3-b]pyridin-4-yl)-7-[(5-piperazin-1-yl-2-pyridyl)amino] isoindolin-1-one]
28 | > 1000 | CN1CCc2cc(-c3ccc(Nc4ccc(N5CCC(O)CC5)cn4)c4c3CNC4=O)nn2CC1=O [I-290, 2-(7-((5-(4-hydroxy-piperidin-1-yl)pyridin-2-yl)amino)-1-oxoisoindolin-4-yl)-6-methyl-5,6-dihydro-4H-pyrazolo[1,5-d][1,4]diaze-pin-7(8H)-one]
29 | < 100 | O=C1NCc2c(-c3cnc4cc(F)ccn34)ccc(Nc3ccc(N4CC[C@@H](F)[C@H](O)C4)cn3)c21 [I-347, 7-((5-((3R,4R)-4-fluoro-3-hydroxy-piperidin-1-yl)pyridin-2-yl)amino)-4-(7-fluoroimidazo [1,2-a]pyridin-3-yl)isoindolin-1-one]
30 | < 100 | CN(C)Cc1nc(Nc2ccc(-c3cnc4cc(F)ccn34)c3c2C(=O)NC3)ccc1[C@@]1(O)CCOC1 [I-804, (S)-7-((6-((dimethylamino)-methyl)-5-(3-hydroxytetra-hydrofuran-3-yl)pyridin-2-yl)amino)-4-(7-fluoroimidazo [1,2-a]pyridin-3-yl)isoindolin-1-one]
31 | < 100 | Cn1ccc2c(-c3ncc(Nc4cncc(N5CC[C@H]6CNC[C@H]65)n4)c4c3CNC4=O)ccnc21 (single isomer, unassigned) [I-660]
32 | < 100 | CN(C)CCN(C)c1cccc(Nc2cnc(-c3ccnc4c3ccn4C)c3c2C(=O)NC3)n1 [I-246, 7-[[6-[2-(dimethylami-no)ethyl-methyl-amino]-2-pyridyl]-amino]-4-(1-methylpyrrolo [2,3-b]pyridin-4-yl)-2,3-dihydropyrrolo [3,4-c]pyridin-1-one]
